We go through eight compounds from ChEMBL document CHEMBL1201862, “PubChem BioAssay data set” (2004).

Molecules are shown by their SMILES.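 Step 1: Grow cells in 96-well plates. Step 2: Expose to compound for 48 hours at 5 concentrations. Step 3: Interpolate endpoints linearly; if unreached, use highest concentration. GI50 marks 50% less growth.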 Activity calls are given as the source filed them. Rule as the data show it: active = GI50 up to about 1.1 µM and inactive = higher. Where only a bound is given, the exact number is not on record here.

Test systems include UACC-62; MDA-MB-435; MOLT-4; NCI/ADR-RES; SN12C; SW-620; MDA-N; A549; CAKI-1; RXF 393; Malme-3M; MDA-MB-231; DU-145; KM12; HOP-92; ACHN; OVCAR-5; EKVX; A498; SF-295.
Common to all, as to experiment: NCI-60 cell line screen, 48 h

Take `N/C(CCSCCSCC/C(N)=N\O)=N\O`: the GI50 in the assay on UACC-62, in the assay with MDA-MB-435, with MOLT-4, in the assay on NCI/ADR-RES, in the assay on SN12C and in the assay on SW-620 was > 100 µM (inactive) throughout. The GI50 in the assay on MDA-N, in the assay on A549, in the assay with CAKI-1, in the assay with RXF 393, in the assay with Malme-3M and with MDA-MB-231 was > 100 µM (inactive) throughout. Also, the GI50 in the assay on DU-145, with KM12, in the assay on HOP-92, in the assay with ACHN, in the assay on OVCAR-5 and in the assay with EKVX was > 100 µM (inactive) each time.

For `CC1CN=C(N(Cc2ccccc2)C(=O)Nc2ccc(Cl)c(Cl)c2)S1` (stereo unspecified), the GI50 in the assay with MOLT-4 is > 10 µM (inactive); with NCI/ADR-RES, 21.4 µM (inactive); in the assay on SN12C, 17.2 µM (inactive); in the assay with A498, 35.7 µM (inactive); in the assay on SW-620 it was 43.5 µM (inactive); with MDA-N, 29.6 µM (inactive). Moreover, the GI50 with A549 is 36.9 µM (inactive); in the assay with CAKI-1, 36.1 µM (inactive); with Malme-3M, 99.3 µM (inactive); in the assay on MDA-MB-231, 27.2 µM (inactive); with SF-295, > 10 µM (inactive); with DU-145 it was 42.7 µM (inactive). Moreover, the GI50 in the assay on KM12 is 40.7 µM (inactive); in the assay with HOP-92, 21.6 µM (inactive); with ACHN, 12.6 µM (inactive); with OVCAR-5, 29.2 µM (inactive); in the assay with EKVX, 53.3 µM (inactive).

In the case of `NC(=O)c1ccc(/N=N/O)nc1`, the GI50 in the assay with UACC-62, in the assay with MOLT-4, with NCI/ADR-RES, with SN12C, with A498 and in the assay on SW-620 was > 100 µM (inactive) throughout. For the same compound, the GI50 was > 100 µM (inactive) in the assay on MDA-N; > 100 µM (inactive) with A549; > 100 µM (inactive) in the assay on CAKI-1; 0.0755 µM (active) in the assay with Malme-3M; > 100 µM (inactive) in the assay on MDA-MB-231; > 100 µM (inactive) with SF-295. Besides, the GI50 with DU-145, in the assay on KM12, with ACHN, with OVCAR-5 and in the assay with EKVX was > 100 µM (inactive) in each case.

As for `O=C1/C(=C/c2ccc(Cl)cc2)CCCc2ccccc21`, the GI50 with UACC-62 is 14.5 µM (inactive); in the assay on MDA-MB-435, 17.1 µM (inactive); in the assay on MOLT-4 it was 14.8 µM (inactive); with NCI/ADR-RES it was 15.1 µM (inactive); in the assay on SN12C, 18.7 µM (inactive); with SW-620 it was 15.4 µM (inactive). Also, the GI50 in the assay on MDA-N is 17.1 µM (inactive); in the assay on A549, 21.3 µM (inactive); in the assay on CAKI-1, 39.4 µM (inactive); in the assay with Malme-3M, 13.6 µM (inactive); with MDA-MB-231 it was 19.6 µM (inactive); in the assay on SF-295, 16.9 µM (inactive). In addition, the GI50 was 23.1 µM (inactive) with DU-145; 15.2 µM (inactive) in the assay on KM12; 21.5 µM (inactive) in the assay with HOP-92; 16.9 µM (inactive) in the assay with ACHN; 16.9 µM (inactive) with OVCAR-5; 14.8 µM (inactive) in the assay with EKVX.

As for `COC(=O)c1c(O)c2c(c3c1OC(C)(C)CC3)OC(C)(C)CC2`, the GI50 with UACC-62 is 18.9 µM (inactive); with MOLT-4, 22.7 µM (inactive); in the assay on NCI/ADR-RES, 22.1 µM (inactive); in the assay with SN12C it was 16 µM (inactive); with A498 it was 18.7 µM (inactive); in the assay on SW-620 it was 17.5 µM (inactive). For the same compound, the GI50 is 22.1 µM (inactive) with MDA-N; 20.5 µM (inactive) in the assay with A549; 21.8 µM (inactive) in the assay on CAKI-1; 0.824 µM (active) with Malme-3M; 13.7 µM (inactive) with MDA-MB-231; 17 µM (inactive) in the assay with SF-295. Also, the GI50 in the assay on DU-145 is 24.5 µM (inactive); with KM12, 16.9 µM (inactive); in the assay on ACHN it was 18 µM (inactive); with OVCAR-5, 18.4 µM (inactive); with EKVX, 21.2 µM (inactive).

Consider `COc1c2c(cc3c1-c1c(cc4c(c1OC)OCO4)C1OC3C(C)C1C)OCO2.COc1cc2c(c(OC)c1OC)-c1c(cc3c(c1OC)OCO3)C1OC2C(C)C1C` (stereo unspecified), for which the GI50 with UACC-62 is 73.8 µM (inactive); in the assay with MDA-MB-435, > 100 µM (inactive); with MOLT-4 it was 22.3 µM (inactive); with SN12C, > 100 µM (inactive); in the assay on A498, > 100 µM (inactive); in the assay with SW-620, > 100 µM (inactive). Also, the GI50 in the assay on MDA-N was > 100 µM (inactive); in the assay with A549, 97.5 µM (inactive); with CAKI-1, > 100 µM (inactive); in the assay on RXF 393, > 100 µM (inactive); in the assay on Malme-3M, > 100 µM (inactive); in the assay with MDA-MB-231 it was 8 µM (inactive). For the same compound, the GI50 in the assay on SF-295 was 87.1 µM (inactive); in the assay on DU-145, 91.8 µM (inactive); in the assay with KM12, 95.1 µM (inactive); in the assay on HOP-92, > 100 µM (inactive); in the assay with ACHN it was > 100 µM (inactive); in the assay with OVCAR-5, > 100 µM (inactive). Moreover, the GI50 in the assay with EKVX is 87.3 µM (inactive).

On to `CS(=O)(=O)C[S+]([O-])C[S+]([O-])C[S+]([O-])CC(NC(=O)CCC(N)C(=O)O)C(=O)O` (stereo unspecified), for which the GI50 with UACC-62, with MDA-MB-435, in the assay on MOLT-4, in the assay on NCI/ADR-RES, in the assay on SN12C and in the assay with SW-620 was > 100 µM (inactive) each time. The GI50 in the assay on MDA-N, in the assay on A549, in the assay with CAKI-1, with MDA-MB-231, with SF-295 and in the assay with DU-145 was > 100 µM (inactive) throughout. The GI50 in the assay on KM12, in the assay with HOP-92, with ACHN, in the assay on OVCAR-5 and in the assay on EKVX was > 100 µM (inactive) each time.

Turning to `COc1ccc(OC)c(/C=C/c2cnnc3ccccc23)c1`, the GI50 is 3.74 µM (inactive) with UACC-62; 0.638 µM (active) in the assay on MDA-MB-435; 2.65 µM (inactive) in the assay with MOLT-4; 2.39 µM (inactive) in the assay with NCI/ADR-RES; 4.17 µM (inactive) with SN12C; 3.06 µM (inactive) in the assay with SW-620. Moreover, the GI50 in the assay with MDA-N was 0.741 µM (active); in the assay with A549 it was 3.27 µM (inactive); in the assay with CAKI-1 it was 4.61 µM (inactive); in the assay with RXF 393 it was 2.25 µM (inactive); with MDA-MB-231, 9.46 µM (inactive); with SF-295 it was 5.4 µM (inactive). In addition, the GI50 in the assay with DU-145 was > 10 µM (inactive); in the assay on KM12, 2.8 µM (inactive); in the assay on HOP-92, 3.89 µM (inactive); in the assay on ACHN, > 10 µM (inactive); in the assay on OVCAR-5 it was > 10 µM (inactive); in the assay on EKVX, 4.15 µM (inactive).
